By ED50 is commonly meant the dose at which the effect has come halfway, by size or by number of responders.

Where two headings read alike, the source gives them in different places.

The subject of data set [1] is ricinus oil-induced diarrhea. To be noted: in vivo; for effect on ricinus oil-induced diarrhea: sc.
Data set [2] has as its system opioid-induced PCO2 increases. As to conditions: guinea pig, in vivo.
Data set [3] has as its system charcoal propulsion. Details: species or system rats. To be noted: rat, in vivo.
The subject of data set [4] is ricinus oil-induced diarrhea. As to conditions: rat, in vivo.
Data set [5] concerns opioid-induced PCO2 increases. As to conditions: rat, in vivo, sc.
For data set [6], the system named is ricinus oil-induced diarrhea. Description: whole plant or invertebrate. As to conditions: in Meriones unguiculatus, sc, 8 h, read-out: ED50 of the opioid to postpone the ricinus oil-induced diarrhea.
The subject of data set [7] is morphine-induced emesis. Description: Inhibition of morphine-induced emesis in ferrets.
The subject of data set [8] is acetone-induced lifting behaviour. Nature of the data set: Tolerance in a chronic neuropathic pain model (CCI gerbils, acetone spray test). It is filed as in vivo.
In data set [9] the test system is opioid-induced PCO2 increases. To be noted: in vivo.
Data set [10] relates to charcoal propulsion. To be noted: in vivo.

Turning to `COc1ccc2c3c1O[C@H]1[C@@H](O)C=C[C@H]4[C@@H](C2)N(C)CC[C@@]341` [Codeine, codeine], the “effect on ricinus oil-induced diarrhea” value in data set [1] is “dose-dependent inhibition”.

Consider `CN1CC[C@]23c4c5ccc(O)c4O[C@H]2[C@@H](O)C=C[C@H]3[C@H]1C5` [Morphine, morphine], for which the PCO2 after opioid result in [2] (sc) was “increase in PCO2”; in [5] it was “increased levels of PCO2”. Also, the “effect on ricinus oil-induced diarrhea” value in data set [1] and in data set [4] (sc) was “dose-dependent inhibition” in each case. Moreover, the “charcoal test result in rats compared with gerbils” value in [3] is on record as “comparable results”. Further, in data set [6], the ED50 is 0.72 mg/kg. Besides, in [7] (i.p.), the “doses causing central side-effects” value is above 0.8 mg/kg. Besides, the “emesis on increasing the dose from 0.4 to 0.8 mg/kg” value in [7] (i.p.) is “more animals with emesis and increased frequencies of periods of emesis, retches and vomiting”. The “acetone-induced lifting behaviour, acute effect” value in [8] (2.5 mg/kg i.p. twice daily) is recorded as “acutely reduced”. In data set [8] (2.5 mg/kg i.p. twice daily, reductions of activity from the second day onwards), the “acetone-induced lifting behaviour at day 7” value is recorded as “no differences with the controls”.

On to `COc1ccc2c3c1O[C@H]1C(=O)CC[C@@]4(O)[C@@H](C2)N(C)CC[C@]314` [Oxycodone, oxycodone], for which the “effect on ricinus oil-induced diarrhea” value in [1] is recorded as “dose-dependent inhibition”. Further, the ED50 in data set [6] was 5.02 mg/kg.

Take “(+)-(B)-trans-4-[1-[3,5-bis(trifluoromethyl)benzoyl]-2-(phenylmethyl)-4-piperidinyl]-N-(2,6-dimethylphenyl)-1-piperazine acetamide (L)-malic acid (1:1) [Compound 95]”: in data set [2], the “effect on PCO2, given alone” value is listed as “did not affect PCO2 values” and the “effect on opioid-induced PCO2 levels” value is listed as “reductions in the opioid-induced PCO2 levels”. In [1], the “effect of adding to the opioids on their ED50s” value is reported as “did not alter the ED50s of the opioids” and the “effects on constipation, given alone” value was “minimal effects”. Also, the “charcoal test result in rats compared with gerbils” value in [3] is “comparable results”. Also, in data set [4], the “effect of adding to the opioids on their ED50s” value is “did not alter the ED50s of the opioids” and the “effects on constipation, given alone” value was “minimal effects”. Besides, in [5] (40 mg/kg), the “effect on PCO2, given alone” value is listed as “did not affect the PCO2 levels”; the “effect on opioid-induced increases in PCO2” value is listed as “some attenuation”; the “number of animals reaching high (>50 mm Hg) levels of PCO2” value is listed as “especially reduced”. Also, in data set [9], the “effect on PCO2, given alone” value is recorded as “no effects were observed” and the “effect on opioid-induced PCO2 levels” value is recorded as “significant decreases”. Further, the “frequency of retches, vomiting and periods of emesis” value in data set [7] (at 0.4 mg/kg morphine) is “non-significant tendency”. Further, the “number (frequency) of vomits” value in data set [7] (at 0.8 mg/kg morphine, 10 mg/kg Compound 95 i.p.) is reported as “diminished significantly”. Moreover, the number of retches result in [7] (at 0.8 mg/kg morphine, 10 and 40 mg/kg i.p. Compound 95) is “significantly reduced”. Moreover, in data set [8] (2.5 mg/kg i.p. twice daily, 11 days, during some days of the experiment), the “acetone-induced lifting behaviour, given alone” value was “limited activity”. In addition, in [8] (2.5 mg/kg morphine with 2.5 mg/kg Compound 95 i.p. twice daily, 11 days), the “activity over the testing period, combination with morphine” value is “the activity remained present over the entire testing period”. In data set [10], the “effect of adding to the opioids on charcoal propulsion” value was “did not affect the outcome of the opioids” and the “effect on charcoal propulsion, given alone” value is “inactive”.
